Test results taken from patent publication US20240207202A1, “COMBINATION THERAPIES TARGETING MITOCHONDRIAL BIOGENESIS FOR CANCER THERAPY” (The Wistar Institute of Anatomy and Biology, priority 2015, published 2024).

How the values were obtained:
Assay type in all cases: cell-based, human
2-NBDG uptake = test: Uptake of 2-NBDG in WM9 cells; conditions: WM9, 72 h, Gamitrinib combined with PLX4720 10 μM
Procedure: Cells were washed with HBSS and were then pre-incubated with Opti-MEM (Life Technologies) for 15 min. Cells were then incubated with DMEM deprived of glucose, glutamine and phenol red (Life Technologies, cat. #A14430-01) and Fetal Bovine Serum that was supplemented with 2-NBDG (Cayman Chemical, cat. #11046) at […] for 1 h. Cells were washed with HBSS and were immediately harvested for FACS analysis.

[1] = system: mitochondrial respiration; test: Real-time oxygen consumption rates (Seahorse XF 24) in WM9 cells; conditions: WM9, 72 h, Gamitrinib 1 μM added to PLX4720 10 μM and PD0325901 1 μM
Procedure: FIGS. 5A-5I. Gamitrinib, An Inhibitor of Mitochondrial Hsp90-directed Protein Folding, Suppresses Mitochondrial Biogenesis and Bioenergetics (A) Induction of apoptosis and cell death by PSVue 643 staining in WM9 melanoma cells treated for 72 h with the combination of Gamitrinib (Gami), Rapamycin, Phenformin (Phen), BEZ235 or 2,4-DNP at titrated doses and PLX4720 at 10 μM, PD0325901 at 1 μM and Gamitrinib at 2.5 μM. Cells treated with DMSO were used as the control. The data represent the average of 2 biological replicates. (B) Relative cell viability assessed by CellTiter Glo in WM9 cells treated for 72 h with DMSO, PLX4720 at 10 μM or the combination of PLX4720 at 10 μM and PD0325901 at 1 μM together with Gamitrinib at titrated doses. (C) Immunoblotting of proteins related to OxPhos, glycolysis, autophagy and the MAPK pathway in WM9 cells treated with PLX4720 at 10 μM and Gamitrinib as single inhibitors or in combination during a time course of 72 h. Cells treated with DMSO are used as the control. (D) Real-time oxygen consumption in WM9 cells subjected to the metabolic stress test with Seahorse XF 24 Analyzer. […] (H) Relative gene expression of 7 representative glycolysis genes assessed by qRT-PCR in WM9 cells treated for 48 h with DMSO or the combination of PLX4720 at 10 μM and PD0325901 at 1 μM with or without the addition of Gamitrinib at 2.5 μM. […]

reactive oxygen species = test: ROS by CellROX Deep Red; conditions: WM9, 72 h, Gamitrinib 1 μM with PLX4720 10 μM and PD0325901 1 μM
Procedure: Adherent melanoma cells were harvested with 0.05% Trypsin-EDTA and were washed once with 1×DPBS. Cells were labeled with CellTrace™ Violet according to the manufacturer's protocol and were allowed to adhere to tissue culture plates overnight following the drug treatment. At indicated time points following the drug treatment, floating and adherent cells were pooled, washed with Hank's Buffered Salt Solution (HBSS) and then stained with CellROX Deep Red at 2.5 μM or MitoTracer Red at 0.25 μM for 1 h in a 37° C. humidified incubator supplied with 5% CO2. Cells were then pelleted, washed with DPBS, and stained with PSVue® 643 at 5 μM diluted in TES buffer for 5 min in the dark. Cells were then immediately subjected to FACS analysis using a BD LSR II flow cytometer and at least 5,000 cells per sample were acquired.
Labeling cells with CellROX Deep Red—Following drug treatment, floating and adherent cells were pooled and stained in FACS tubes with CellROX Deep Red at 2.5 μM. Fluorescent dyes were diluted in 10% DMEM/F12 culture medium. Stained cell suspensions were kept in a 37° C. tissue culture incubator for 60 min with brief vortexing every 30 min. Cells were then washed with 1×PBS supplemented with 10% FBS.

Gamitrinib
uptake of 2-NBDG (2-NBDG uptake): decreased uptake of 2-NBDG
oxygen consumption rates (basal respiration, proton leak, ATP production, maximal respiration, spare respiratory capacity) [1]: significantly inhibited all key parameters of OCR
ROS production compared to MAPK pathway inhibitors alone (reactive oxygen species): markedly increased the ROS production
